Laboratory results as given in patent publication US20080027145A1, “Therapeutic Molecules and Methods for Generating and/or Selecting Same” (priority 2004, published 2008).

Tests used:
Mcl-1 = molecular target: T1, Mcl-1 (Mus musculus, UniProt P97287); test: Solution competition assay (competition with immobilized wtBimBH3, biosensor); type: binding; conditions: Mcl-1
T1 construct: mouse Mcl-1 (Acc. no. NP_031588; residues 152-308); GST (N, cleaved yes); made in house
Method: (§1) The relative affinities of BH3 peptides for pro-survival Bcl-2 proteins were assessed by comparing their abilities to compete with immobilized ^wtBimBH3 peptide for binding to Bcl-2-like proteins (Wilson-Annan et al., Supra). A fixed sub-saturating amount (10 nM) of a pro-survival Bcl-2 protein was incubated with varying amounts of competitor BH3 peptide in HBS for >2 hr on ice. The mixtures were then injected over a sensor chip containing a channel bearing mouse ^wtBimBH3 and a control channel with mouse ^4EBimBH3 immobilized. The baseline response (control channel) was subtracted to obtain the absolute binding response. Taking the response for the pro-survival protein alone as the maximal response (100%), the relative residual binding (%) in the presence of increasing amounts of competitor peptides at a given injection time point (430 s) was then calculated. […] Theoretically, IC50=[A]/2+KD, where [A] is the analyte concentration.
(§2) Some of recombinant proteins (Bcl-2, Bcl-xL, A1) studied contain cysteine residues but the behavior of Bcl-2 or Bcl-xL was not affected by dithiothreitol (DTT).
(§3) To assess if other BH3 peptides bind pro-survival proteins similarly, we directly compared their binding affinities in solution using a competitive binding assay. In such assays, the quality and absolute quantity of target proteins are less critical than in direct binding, and solution binding precludes the steric hindrance encountered with some immobilized peptides. FIG. 1C illustrates the approach: pre-incubation of Bcl-xL in solution with increasing amounts of BikBH3 reduced its binding to ^wtBimBH3 (FIG. 1D). From the attenuation in binding, the IC50 (competitor peptide concentration that halves binding) of BikBH3 can be calculated (FIG. 1E). As the IC50 values reflect relative binding affinities (see Experimental Procedures), we used this assay to compare the binding affinities of eight BH3 peptides (Table 3) to the five pro-survival proteins. […] Their binding properties fell into several classes (FIG. 2B and FIG. 4). […] Contrary to the prevailing view, the pro-survival proteins also had unique patterns for BH3 binding: Bcl-xL behaved like Bcl-w, with Bcl-2 more distinct, whereas Mcl-1 and A1 formed a separate group (FIG. 2B).

[1] = tested on: pro-survival proteins (Bcl-2, Bcl-xL, Bcl-w, Mcl-1, A1); test: Solution competition assay, statements spanning several pro-survival proteins; type: binding, human and mouse; conditions: Bcl-2, Bcl-xL, Bcl-w, Mcl-1, A1
Method: as §1, §2, §3

A1 ΔC20 = molecular target: T2, A1 ΔC20 (Mus musculus, UniProt Q07440); test: Direct binding to immobilized BH3 peptide, Biacore biosensor; conditions: BadBH3 or NoxaBH3 immobilized chip
T2 construct: mouse A1 (Acc. no. NP_033872; residues 1-152); GST (N, cleaved yes); made in house
T2 sequence (Q07440 1-152): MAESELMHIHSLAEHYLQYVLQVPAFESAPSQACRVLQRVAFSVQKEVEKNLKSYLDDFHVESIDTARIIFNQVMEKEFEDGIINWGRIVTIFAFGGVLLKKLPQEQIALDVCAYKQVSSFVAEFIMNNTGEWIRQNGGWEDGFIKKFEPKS
Method: (§4) Recombinant human Bcl-xL ΔC24, mouse Mcl-1 ΔN151 ΔC23 and mouse A1 ΔC20 were expressed as GST fusion proteins and cleaved off Glutathione Sepharose columns as described (Day et al., Cell Death Differ 6:1125-1132, 1999; Hinds et al., EMBO J 22:1497-1507, 2003).
(§5) Affinity measurements were performed at room temperature on a Biacore 3000 biosensor (Biacore) with HBS (10 mM HEPES pH 7.2, 150 mM NaCl, 3.4 mM EDTA, 0.005% Tween 20) as the running buffer. Mouse 26-mer ^wtBimBH3, ^4EBimBH3 mutant, BadBH3, NoxaBH3 or control irrelevant peptides were immobilized onto CM5 sensor chips using amine-coupling chemistry (Wilson-Annan et al., Supra). To assess the binding affinities of pro-survival Bcl-2-like proteins for BimBH3 directly, the proteins were directly injected into the sensor chip at 20 μl/min. Residual bound proteins were desorbed with 50 mM NaOH or 6 M GuHCl (pH 7.2), followed by two washes with running buffer. Binding kinetics were derived from sensorgrams, following subtraction of baseline responses, using BIA evaluation software (version 3, Biacore) (Wilson-Annan et al., Supra).
(§6) The binding constants of the pro-survival molecules for ^wtBimBH3, immobilized on sensor chip, were determined using biosensor experiments as described in Hinds et al., Supra; Wilson-Annan et al., Supra.

Bcl-2 ΔC22 = molecular target: T3, Bcl-2 ΔC22 (Homo sapiens, UniProt P10415); test: as above; conditions: BadBH3 or NoxaBH3 immobilized chip
T3 construct: Human Bcl-2 (Acc. no. NP_000624; residues 1-217); made in house
Method: as §4, §5, §6

Mcl-1 ΔN151 ΔC23 = molecular target: T4, Mcl-1 ΔN151 ΔC23 (Mus musculus, UniProt P97287); test: as above; conditions: BadBH3 or NoxaBH3 immobilized chip
T4 construct: mouse Mcl-1 (Acc. no. NP_031588; residues 152-308); GST (N, cleaved yes); made in house
Method: as §4, §5, §6

Bcl-w ΔC29 = molecular target: T5, Bcl-w ΔC29 (Homo sapiens, UniProt Q92843, A128E/C29S); test: as above; conditions: BadBH3 or NoxaBH3 immobilized chip
T5 construct: human Bcl-w (Acc. no. NP_004041; residues 1-164; C29S A128E); made in house
T5 sequence (Q92843 1-164 C29S/A128E): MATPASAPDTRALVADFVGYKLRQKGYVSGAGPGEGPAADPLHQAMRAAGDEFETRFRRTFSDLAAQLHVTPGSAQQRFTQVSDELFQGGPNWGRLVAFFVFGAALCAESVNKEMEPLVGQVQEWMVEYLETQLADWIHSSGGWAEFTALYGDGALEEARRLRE
Method: as §4, §5, §6

Bcl-xL ΔC24 = molecular target: T6, Bcl-xL ΔC24 (Homo sapiens, UniProt Q07817); test: as above; conditions: BadBH3 or NoxaBH3 immobilized chip
T6 construct: Human Bcl-xL (Acc. no. NP_612815; residues 1-209); GST (N, cleaved yes); made in house
Method: as §4, §5, §6

T1 sequence (P97287 152-308): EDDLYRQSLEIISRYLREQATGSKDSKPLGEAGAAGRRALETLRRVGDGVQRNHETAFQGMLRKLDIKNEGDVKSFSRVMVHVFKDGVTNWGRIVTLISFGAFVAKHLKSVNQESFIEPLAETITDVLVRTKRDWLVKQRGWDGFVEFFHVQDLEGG
T4 sequence (P97287 152-308): as above
T6 sequence (Q07817 1-209): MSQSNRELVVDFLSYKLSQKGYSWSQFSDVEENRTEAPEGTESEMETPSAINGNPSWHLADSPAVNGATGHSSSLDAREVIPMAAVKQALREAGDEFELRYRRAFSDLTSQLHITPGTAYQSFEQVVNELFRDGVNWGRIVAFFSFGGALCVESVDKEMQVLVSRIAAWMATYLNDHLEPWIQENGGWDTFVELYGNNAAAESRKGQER
T3 sequence (P10415 1-217): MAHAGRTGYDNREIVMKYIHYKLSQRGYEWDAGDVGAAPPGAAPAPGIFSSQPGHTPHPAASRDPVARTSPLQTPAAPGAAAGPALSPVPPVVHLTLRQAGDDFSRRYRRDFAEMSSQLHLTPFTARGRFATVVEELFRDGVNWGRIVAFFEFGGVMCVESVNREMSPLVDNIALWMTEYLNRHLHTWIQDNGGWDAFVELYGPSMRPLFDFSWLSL

CSCC[C@H](NC(=O)[C@H](CCCNC(=N)N)NC(=O)[C@H](CCCNC(=N)N)NC(=O)[C@H](CC(C)C)NC(=O)[C@H](CCC(=O)O)NC(=O)[C@H](CCCNC(=N)N)NC(=O)CNC(=O)[C@H](Cc1ccc(O)cc1)NC(=O)[C@H](CCCNC(=N)N)NC(=O)[C@H](CCC(N)=O)NC(=O)[C@H](C)NC(=O)[C@H](C)NC(=O)[C@H](Cc1c[nH]c2ccccc12)NC(=O)[C@H](CC(C)C)NC(=O)[C@@H](N)CC(N)=O)C(=O)N[C@@H](CO)C(=O)N[C@@H](CC(=O)O)C(=O)N[C@@H](CCC(=O)O)C(=O)N[C@@H](Cc1ccccc1)C(=O)N[C@H](C(=O)N[C@@H](CC(=O)O)C(=O)N[C@@H](CO)C(=O)N[C@@H](Cc1ccccc1)C(=O)N[C@@H](CCCCN)C(=O)N[C@@H](CCCCN)C(=O)NCC(=O)O)C(C)C [BadBH3]
IC50 (Mcl-1): > 100 µM | binding preference among pro-survival proteins [1]: strongly preferred Bcl-2, BCl-xL and Bcl-w | binding of A1 to immobilized peptide (A1 ΔC20): no affinity | binding of Bcl-2 to immobilized peptide (Bcl-2 ΔC22): avidly | binding of Mcl-1 to immobilized peptide (Mcl-1 ΔN151 ΔC23): no affinity | binding of Bcl-w to immobilized peptide (Bcl-w ΔC29): avidly | binding of Bcl-xL to immobilized peptide (Bcl-xL ΔC24): avidly
